Data as given in patent US10435405B2, “Pyrazolopyridine compounds and uses thereof” (Incyte Corporation, priority 2016, dated 2019).

Biological target: HPK1 (Homo sapiens (Human), UniProt Q92918)
Assay: HPK1 Kinase Binding Assay
Protocol: A stock solution of 1 mM test compound was prepared in DMSO. The compound plate was prepared by 3-fold and 11-point serial dilutions. 0.1 μL of the compound in DMSO was transferred from the compound plate to the white 384 well polystyrene plates. The assay buffer contained 50 mM HEPES, pH 7.5, 0.01% Tween-20, 5 mM MgCl2, 0.01% BSA, and 5 mM DTT. 5 μl of 4 nM active HPK1 (SignalChem M23-11G) prepared in the buffer was added to the plate. The enzyme concentration given was based on the given stock concentration reported by the vender. 5 μl of 18 nM tracer 222 (ThermoFisher PV6121) and 4 nM LanthaScreen Eu-Anti GST antibody (ThermoFisher PV5595) were added. After one hour incubation at 25° C., the plates were read on a PHERAstar FS plate reader (BMG Labtech). Ki values were determined.

HPK1, sequence (Q92918 1-346): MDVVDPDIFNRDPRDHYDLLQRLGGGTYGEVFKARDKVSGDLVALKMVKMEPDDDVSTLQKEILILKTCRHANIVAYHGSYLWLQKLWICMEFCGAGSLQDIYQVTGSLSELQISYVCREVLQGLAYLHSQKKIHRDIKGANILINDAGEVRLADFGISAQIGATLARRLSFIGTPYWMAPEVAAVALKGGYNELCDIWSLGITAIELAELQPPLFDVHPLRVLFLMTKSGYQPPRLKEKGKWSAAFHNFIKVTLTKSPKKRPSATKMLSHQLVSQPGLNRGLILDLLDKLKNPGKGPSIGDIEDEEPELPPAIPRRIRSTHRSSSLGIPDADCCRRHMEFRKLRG

COc1cccc(F)c1-c1cc2c(-c3cc(C)no3)n[nH]c2cn1 [Example 35, 5-(5-(2-Fluoro-6-methoxyphenyl)-1H-pyrazolo[3,4-c]pyridin-3-yl)-3-methylisoxazole]
Ki: ≤ 100 nM

COc1cccc(F)c1-c1cc2c(-c3cnc(C)s3)n[nH]c2cn1 [Example 36, 5-(5-(2-Fluoro-6-methoxyphenyl)-1H-pyrazolo[3,4-c]pyridin-3-yl)-2-methylthiazole]
Ki: ≤ 100 nM

COc1cccc(F)c1-c1cc2c(N3CCN(c4ccc(Br)cc4)C(=O)C3)n[nH]c2cn1 [Example 37, 1-(4-Bromophenyl)-4-(5-(2-fluoro-6-methoxyphenyl)-1H-pyrazolo[3,4-c]pyridin-3-yl)piperazin-2-one]
Ki: ≤ 100 nM

COc1cccc(F)c1-c1cc2c(N3CCc4ccc(C#N)cc4C3)n[nH]c2cn1 [Example 38, 2-(5-(2-Fluoro-6-methoxyphenyl)-1H-pyrazolo[3,4-c]pyridin-3-yl)-1,2,3,4-tetrahydroisoquinoline-7-carbonitrile]
Ki: ≤ 100 nM

COc1cccc(F)c1-c1cc2c(N3CCN(c4ccc(C#N)cc4)CC3)n[nH]c2cn1 [Example 39, 4-(4-(5-(2-Fluoro-6-methoxyphenyl)-1H-pyrazolo[3,4-c]pyridin-3-yl)piperazin-1-yl)benzonitrile]
Ki: ≤ 100 nM

COc1cccc(F)c1-c1cc2c(N3CCN(c4ccncc4)CC3)n[nH]c2cn1 [Example 40, 5-(2-Fluoro-6-methoxyphenyl)-3-(4-(pyridin-4-yl)piperazin-1-yl)-1H-pyrazolo[3,4-c]pyridine]
Ki: ≤ 100 nM

COc1cccc(F)c1-c1cc2c(NCc3ccc(N4CCN(C)CC4)cc3)n[nH]c2cn1 [Example 41, 5-(2-Fluoro-6-methoxyphenyl)-N-(4-(4-methylpiperazin-1-yl)benzyl)-1H-pyrazolo[3,4-c]pyridin-3-amine]
Ki: 500 to 2000 nM

CN1CCN(c2ccc(-c3n[nH]c4cnc(-c5cc(F)cc(C6(CN)CC6)c5)cc34)cc2)CC1 [Example 42, 1-[1-(3-Fluoro-5-{3-[4-(4-methylpiperazin-1-yl)phenyl]-1H-pyrazolo[3,4-c]pyridin-5-yl}phenyl)cyclopropyl]methanamine]
Ki: ≤ 100 nM

COc1cccc(F)c1-c1cc2c(-c3ccc(N4CCN(C)CC4)cc3)n[nH]c2cn1 [Example 43, 5-(2-Fluoro-6-methoxyphenyl)-3-(4-(4-methylpiperazin-1-yl)phenyl)-1H-pyrazolo[3,4-c]pyridine]
Ki: ≤ 100 nM

CN1CCN(c2ccc(-c3n[nH]c4cnc(-c5c(F)cccc5F)cc34)cc2)CC1 [Example 44, 5-(2,6-Difluorophenyl)-3-(4-(4-methylpiperazin-1-yl)phenyl)-1H-pyrazolo[3,4-c]pyridine]
Ki: ≤ 100 nM

Cc1cccc(C)c1-c1cc2c(-c3ccc(N4CCN(C)CC4)cc3)n[nH]c2cn1 [Example 45, 5-(2,6-Dimethylphenyl)-3-(4-(4-methylpiperazin-1-yl)phenyl)-1H-pyrazolo[3,4-c]pyridine]
Ki: ≤ 100 nM

CN1CCN(c2ccc(-c3n[nH]c4cnc(-c5c(F)cc(F)cc5F)cc34)cc2)CC1 [Example 46, 3-(4-(4-Methylpiperazin-1-yl)phenyl)-5-(2,4,6-trifluorophenyl)-1H-pyrazolo[3,4-c]pyridine]
Ki: ≤ 100 nM

CN1CCN(c2ccc(-c3n[nH]c4cnc(-c5c(F)cccc5Cl)cc34)cc2)CC1 [Example 47, 5-(2-Chloro-6-fluorophenyl)-3-(4-(4-methylpiperazin-1-yl)phenyl)-1H-pyrazolo[3,4-c]pyridine]
Ki: ≤ 100 nM

CN1CCN(c2ccc(-c3n[nH]c4cnc(-c5c(F)cc(O)cc5F)cc34)cc2)CC1 [Example 48, 3,5-Difluoro-4-(3-(4-(4-methylpiperazin-1-yl)phenyl)-1H-pyrazolo[3,4-c]pyridin-5-yl)phenol]
Ki: ≤ 100 nM

Cc1cccc(F)c1-c1cc2c(-c3ccc(N4CCN(C)CC4)cc3)n[nH]c2cn1 [Example 49, 5-(2-Fluoro-6-methylphenyl)-3-(4-(4-methylpiperazin-1-yl)phenyl)-1H-pyrazolo[3,4-c]pyridine]
Ki: ≤ 100 nM

CN1CCN(c2ccc(-c3n[nH]c4cnc(-c5c(Cl)cccc5C(F)(F)F)cc34)cc2)CC1 [Example 50, 5-(2-Chloro-6-(trifluoromethyl)phenyl)-3-(4-(4-methylpiperazin-1-yl)phenyl)-1H-pyrazolo[3,4-c]pyridine]
Ki: ≤ 100 nM

CCOc1cccc(F)c1-c1cc2c(-c3ccc(N4CCN(C)CC4)cc3)n[nH]c2cn1 [Example 51, 5-(2-Ethoxy-6-fluorophenyl)-3-(4-(4-methylpiperazin-1-yl)phenyl)-1H-pyrazolo[3,4-c]pyridine]
Ki: ≤ 100 nM

COc1cccc(Cl)c1-c1cc2c(-c3ccc(N4CCN(C)CC4)cc3)n[nH]c2cn1 [Example 52, 5-(2-Chloro-6-methoxyphenyl)-3-(4-(4-methylpiperazin-1-yl)phenyl)-1H-pyrazolo[3,4-c]pyridine]
Ki: ≤ 100 nM

CN1CCN(c2ccc(-c3n[nH]c4cnc(-c5c(F)cccc5C(F)(F)F)cc34)cc2)CC1 [Example 53, 5-(2-Fluoro-6-(trifluoromethyl)phenyl)-3-(4-(4-methylpiperazin-1-yl)phenyl)-1H-pyrazolo[3,4-c]pyridine]
Ki: ≤ 100 nM

COc1cccc(F)c1-c1cc2c(C(=O)Nc3ccc(N4CCN(C)CC4)cc3)n[nH]c2cn1 [Example 54, 5-(2-Fluoro-6-methoxyphenyl)-N-(4-(4-methylpiperazin-1-yl)phenyl)-1H-pyrazolo[3,4-c]pyridine-3-carboxamide]
Ki: ≤ 100 nM

COc1cccc(F)c1-c1cc2c(C(=O)Nc3ccc(N4CCOCC4)cc3)n[nH]c2cn1 [Example 55, 5-(2-Fluoro-6-methoxyphenyl)-N-(4-morpholinophenyl)-1H-pyrazolo[3,4-c]pyridine-3-carboxamide]
Ki: ≤ 100 nM

CCN1CCN(c2ccc(NC(=O)c3n[nH]c4cnc(-c5c(F)cccc5OC)cc34)cc2)CC1 [Example 56, N-(4-(4-Ethylpiperazin-1-yl)phenyl)-5-(2-fluoro-6-methoxyphenyl)-1H-pyrazolo[3,4-c]pyridine-3-carboxamide]
Ki: ≤ 100 nM

COCCNC(=O)c1cc(F)c(-c2cc3c(-c4cnn(C)c4)n[nH]c3cn2)c(F)c1 [Example 57, 3,5-Difluoro-N-(2-methoxyethyl)-4-(3-(1-methyl-1H-pyrazol-4-yl)-1H-pyrazolo[3,4-c]pyridin-5-yl)benzamide]
Ki: ≤ 100 nM

COC1CN(C(=O)c2cc(F)c(-c3cc4c(-c5cnn(C)c5)n[nH]c4cn3)c(F)c2)C1 [Example 58, (3,5-Difluoro-4-(3-(1-methyl-1H-pyrazol-4-yl)-1H-pyrazolo[3,4-c]pyridin-5-yl)phenyl)(3-methoxyazetidin-1-yl)methanone]
Ki: ≤ 100 nM

Cn1cc(-c2n[nH]c3cnc(-c4c(F)ccc(NC(=O)C5CCC5)c4F)cc23)cn1 [Example 59, N-(2,4-Difluoro-3-(3-(1-methyl-1H-pyrazol-4-yl)-1H-pyrazolo[3,4-c]pyridin-5-yl)phenyl)cyclobutanecarboxamide]
Ki: ≤ 100 nM

Cn1cc(-c2n[nH]c3cnc(-c4c(F)ccc(NC(=O)Cc5ccccc5)c4F)cc23)cn1 [Example 60, N-(2,4-Difluoro-3-(3-(1-methyl-1H-pyrazol-4-yl)-1H-pyrazolo[3,4-c]pyridin-5-yl)phenyl)-2-phenylacetamide]
Ki: ≤ 100 nM

CNc1ccc(F)c(-c2cc3c(-c4cnn(C)c4)n[nH]c3cn2)c1F [Example 61, 2,4-Difluoro-N-methyl-3-(3-(1-methyl-1H-pyrazol-4-yl)-1H-pyrazolo[3,4-c]pyridin-5-yl)aniline]
Ki: ≤ 100 nM

CN(C)c1ccc(F)c(-c2cc3c(-c4cnn(C)c4)n[nH]c3cn2)c1F [Example 62, 2,4-Difluoro-N,N-dimethyl-3-(3-(1-methyl-1H-pyrazol-4-yl)-1H-pyrazolo[3,4-c]pyridin-5-yl)aniline]
Ki: ≤ 100 nM

CN(C)c1cc(F)c(-c2cc3c(-c4cnn(C)c4)n[nH]c3cn2)c(F)c1 [Example 63, 3,5-Difluoro-N,N-dimethyl-4-(3-(1-methyl-1H-pyrazol-4-yl)-1H-pyrazolo[3,4-c]pyridin-5-yl)aniline]
Ki: ≤ 100 nM

Cn1cc(-c2n[nH]c3cnc(-c4c(F)cc(NC(=O)CN5CCCC5)cc4F)cc23)cn1 [Example 64, N-(3,5-Difluoro-4-(3-(1-methyl-1H-pyrazol-4-yl)-1H-pyrazolo[3,4-c]pyridin-5-yl)phenyl)-2-(pyrrolidin-1-yl)acetamide]
Ki: ≤ 100 nM

Cn1cc(C(=O)Nc2cc(F)c(-c3cc4c(-c5cnn(C)c5)n[nH]c4cn3)c(F)c2)cn1 [Example 65, N-(3,5-Difluoro-4-(3-(1-methyl-1H-pyrazol-4-yl)-1H-pyrazolo[3,4-c]pyridin-5-yl)phenyl)-1-methyl-1H-pyrazole-4-carboxamide]
Ki: ≤ 100 nM

Cn1cc(-c2n[nH]c3cnc(-c4c(F)cc(NC(=O)CC5CCCC5)cc4F)cc23)cn1 [Example 66, 2-Cyclopentyl-N-(3,5-difluoro-4-(3-(1-methyl-1H-pyrazol-4-yl)-1H-pyrazolo[3,4-c]pyridin-5-yl)phenyl)acetamide]
Ki: ≤ 100 nM

Cn1cc(-c2n[nH]c3cnc(-c4c(F)cc(NC(=O)Cc5cccnc5)cc4F)cc23)cn1 [Example 67, N-(3,5-Difluoro-4-(3-(1-methyl-1H-pyrazol-4-yl)-1H-pyrazolo[3,4-c]pyridin-5-yl)phenyl)-2-(pyridin-3-yl)acetamide]
Ki: ≤ 100 nM

Cn1cc(-c2n[nH]c3cnc(-c4c(F)cc(NC(=O)CN5C6CCC5CC6)cc4F)cc23)cn1 [Example 68, 2-(7-Azabicyclo[2.2.1]heptan-7-yl)-N-(3,5-difluoro-4-(3-(1-methyl-1H-pyrazol-4-yl)-1H-pyrazolo[3,4-c]pyridin-5-yl)phenyl)acetamide]
Ki: ≤ 100 nM
